Results taken from patent US20220279826A1, “OFF-FLAVOR SUPPRESSING AGENT” (AJINOMOTO CO., INC., priority 2019, published 2022).

Key:
[1] = Sensory evaluation of off-taste suppressing effect in 0.8 wt % potassium chloride aqueous solution (Experimental Examples 1 and 2); details: for off-taste suppressing effect: 0.8 wt % potassium chloride aqueous solution; for intensity of off-tastes (bitter taste, metallic taste, harsh taste, astringent taste) derived from potassium chloride: potassium chloride aqueous solutions, Tables 1 to 14
Procedure: Each compound shown in the following Tables 1 to 13 was added to a 0.8 wt % potassium chloride aqueous solution at the concentration (addition concentration) shown in the following Tables 1 to 13 to prepare each evaluation sample.
Based on the following evaluation criteria, a panel of two experts determined by consensus the intensity of off-tastes (bitter taste, metallic taste, harsh taste, astringent taste) derived from potassium chloride in each evaluation sample, by reference to each potassium chloride aqueous solution adjusted to 0.8 wt %, 0.75 wt %, 0.7 wt %, or 0.65 wt %.
−: intensity of the same level as potassium chloride aqueous solution with potassium chloride concentration of not less than 0.8 wt %
+: intensity of the same level as potassium chloride aqueous solution with potassium chloride concentration of not less than 0.75 wt % and less than 0.8 wt %
++: intensity of the same level as potassium chloride aqueous solution with potassium chloride concentration of not less than 0.7 wt % and less than 0.75 wt %
+++: intensity of the same level as potassium chloride aqueous solution with potassium chloride concentration of not less than 0.65 wt % and less than 0.7 wt %
Each compound shown in the following Table 14 was added to a 0.8 wt % potassium chloride aqueous solution at the concentration (addition concentration) shown in the following Table 14 to prepare each evaluation sample.

[2] = Sensory evaluation in 0.15 wt % catechin aqueous solution (Experimental Example 9); details: summary of Table 23
Procedure: Each compound shown in the following Table 23 was added to a 0.15 wt % catechin aqueous solution (an aqueous solution prepared by dissolving catechin (0.15 parts by weight) in ion exchange water (99.85 parts by weight)) so as to achieve the concentration (addition concentration) shown in the following Table 23 to prepare each evaluation sample.
(§1) Based on the following evaluation criteria, a panel of four experts determined by consensus the intensity of off-tastes (bitter taste, rough taste, harsh taste) derived from catechin in each evaluation sample, by comparison with a 0.15 wt % catechin aqueous solution without addition of any compound (negative control).

[3] = Sensory evaluation in granular soy protein (Experimental Example 14); details: text summary of Table 28
Procedure: Each compound shown in the following Table 28 was added to granular soy protein (manufactured by FUJI OIL CO., LTD.) so as to achieve the concentration (addition concentration) shown in the following Table 28 to prepare each evaluation sample.
as §1, with “harsh” for “rough”, “astringent” for “harsh”, “soy protein” for “catechin”, “granular soy protein” for “a 0.15 wt % catechin aqueous solution”

[4] = Sensory evaluation in soy protein hamburg steak (Experimental Example 17); details: Table 32
Procedure: Of the materials shown in the following Table 31, the materials of category 1 were first mixed, and the materials of category 2 were further mixed. The obtained mixture was formed into a circular shape of about 100 g per piece, and then baked at 180° C. for 2 minutes and 30 seconds for each of the front and back sides on an iron plate to produce a soy protein hamburg steak. Here, the granular soy protein manufactured by FUJI OIL CO., LTD. was used.
Each compound shown in the following Table 32 was added to soy protein hamburg steak so as to achieve the concentration (addition concentration) shown in the following Table 32 to prepare each evaluation sample.
as §1, with “five” for “four”, “harsh” for “rough”, “astringent” for “harsh”, “soy protein” for “catechin”, “soy protein hamburg steak” for “a 0.15 wt % catechin aqueous solution”

[5] = Sensory evaluation in 1.5 wt % disodium phosphate aqueous solution (Experimental Example 19); details: Table 34
Procedure: Each compound shown in the following Table 34 was added to a 1.5 wt % disodium phosphate aqueous solution (aqueous solution prepared by dissolving disodium phosphate (1.5 parts by weight) in water (98.5 parts by weight)) so as to achieve the concentration (addition concentration) shown in the following Table 34 to prepare each evaluation sample.
as §1, with “harsh” for “rough”, “astringent” for “harsh”, “disodium phosphate” for “catechin”, “1.5” for “0.15”

[6] = addition concentration 100 weight ppb (12.5 weight ppm with respect to potassium chloride)
[7] = addition concentration 500 weight ppb (62.5 weight ppm with respect to potassium chloride)

SMILES	off-taste suppressing effect ([1]; addition concentration 10 weight ppb (1.25 weight ppm with respect to potassium chloride))	off-taste suppressing effect ([1]; addition concentration 50 weight ppb (6.25 weight ppm with respect to potassium chloride))	off-taste suppressing effect [1, 6]	off-taste suppressing effect [1, 7]	intensity of off-tastes (bitter taste, metallic taste, harsh taste, astringent taste) derived from potassium chloride [1]	intensity of off-tastes (bitter taste, rough taste, harsh taste) derived from catechin [2]	intensity of off-tastes (bitter taste, harsh taste, astringent taste) derived from soy protein [3]	intensity of off-tastes (bitter taste, harsh taste, astringent taste) derived from soy protein [4]	intensity of off-tastes (bitter taste, harsh taste, astringent taste) derived from disodium phosphate [5]	off-taste suppressing effect ([1]; addition concentration 1000 weight ppb (125 weight ppm with respect to potassium chloride))	off-taste suppressing effect ([1]; addition concentration 2000 weight ppb (250 weight ppm with respect to potassium chloride))
CC1OCCC1=O (stereo not drawn) [2-methyltetrahydrofuran-3-one]	++ (intensity of the same level as potassium chloride aqueous solution with potassium chloride concentration of not less than 0.7 wt % and less than 0.75 wt %)	++ (intensity of the same level as potassium chloride aqueous solution with potassium chloride concentration of not less than 0.7 wt % and less than 0.75 wt %)	++ (intensity of the same level as potassium chloride aqueous solution with potassium chloride concentration of not less than 0.7 wt % and less than 0.75 wt %)	+ (intensity of the same level as potassium chloride aqueous solution with potassium chloride concentration of not less than 0.75 wt % and less than 0.8 wt %)	decreased	suppressed	suppressed	suppressed	suppressed		
CC(=O)c1ccc(C)o1 [2-acetyl-5-methylfuran]			+ (intensity of the same level as potassium chloride aqueous solution with potassium chloride concentration of not less than 0.75 wt % and less than 0.8 wt %)	++ (intensity of the same level as potassium chloride aqueous solution with potassium chloride concentration of not less than 0.7 wt % and less than 0.75 wt %)	decreased	suppressed	suppressed	suppressed	suppressed	+ (intensity of the same level as potassium chloride aqueous solution with potassium chloride concentration of not less than 0.75 wt % and less than 0.8 wt %)	+ (intensity of the same level as potassium chloride aqueous solution with potassium chloride concentration of not less than 0.75 wt % and less than 0.8 wt %)
